Several values for one entry are separate records, joined by “and”; a condition that tells them apart may be missing. Equal values may be shown once. ± gives the expanded uncertainty stated by the source.
Details: Liquid, Falling or rolling sphere viscometry

For CC(C)CCCCCCCOC(=O)c1ccccc1C(=O)OCCCCCCCC(C)C, which viscosity (273.15 K, 100 kPa) is on record?
Its viscosity is 625.8 ± 54 mPa·s.

What about the viscosity (273.15 K, 9900 kPa) of the same molecule?
The viscosity was 845.1 ± 81 mPa·s.

And the viscosity (298.15 K, 100 kPa)?
Its viscosity is 87.41 ± 2.4 mPa·s and 87.37 ± 2.4 mPa·s.

What about the viscosity (298.15 K, 9600 kPa) of the same molecule?
The viscosity was 110.7 ± 3.5 mPa·s.

What about the viscosity (298.15 K, 20600 kPa) of the same molecule?
The viscosity was 145 ± 5.6 mPa·s.

And the viscosity (298.15 K, 20700 kPa)?
Its viscosity is 145.5 ± 5.7 mPa·s.

And the viscosity (298.15 K, 30100 kPa)?
Its viscosity is 182.5 ± 8.2 mPa·s.

What about the viscosity (298.15 K, 30300 kPa) of the same molecule?
The viscosity was 183 ± 8.2 mPa·s.

And the viscosity (298.15 K, 40700 kPa)?
The viscosity was 234.2 ± 12 mPa·s.

And the viscosity (298.15 K, 50200 kPa)?
The viscosity was 289.4 ± 17 mPa·s.

What about the viscosity (298.15 K, 59200 kPa) of the same molecule?
The viscosity was 356.2 ± 24 mPa·s.

And the viscosity (298.15 K, 71600 kPa)?
Its viscosity is 465.4 ± 35 mPa·s.

What about the viscosity (298.15 K, 82000 kPa) of the same molecule?
Its viscosity is 589 ± 49 mPa·s.

What about the viscosity (298.15 K, 83300 kPa) of the same molecule?
Its viscosity is 608.4 ± 51 mPa·s.

And the viscosity (313.15 K, 100 kPa)?
The viscosity was 37.71 ± 0.82 mPa·s.

And the viscosity (313.15 K, 10900 kPa)?
The viscosity was 47.29 ± 1 mPa·s.

And the viscosity (313.15 K, 21200 kPa)?
The viscosity was 58.95 ± 1.2 mPa·s.

What about the viscosity (313.15 K, 30600 kPa) of the same molecule?
Its viscosity is 71.54 ± 1.7 mPa·s.

And the viscosity (313.15 K, 40900 kPa)?
The viscosity was 88.99 ± 2.4 mPa·s.

What about the viscosity (313.15 K, 51600 kPa) of the same molecule?
The viscosity was 109.1 ± 3.5 mPa·s.

What about the viscosity (313.15 K, 62400 kPa) of the same molecule?
The viscosity was 136.7 ± 5.1 mPa·s.

And the viscosity (313.15 K, 71300 kPa)?
The viscosity was 160.8 ± 6.7 mPa·s.

What about the viscosity (313.15 K, 80300 kPa) of the same molecule?
The viscosity was 192.4 ± 8.9 mPa·s.

What about the viscosity (313.15 K, 89800 kPa) of the same molecule?
Its viscosity is 234.4 ± 12 mPa·s.

What about the viscosity (338.15 K, 100 kPa) of the same molecule?
The viscosity was 13.37 ± 0.29 mPa·s [middle of 4 runs].

And the viscosity (338.15 K, 9700 kPa)?
Its viscosity is 15.54 ± 0.34 mPa·s.

And the viscosity (338.15 K, 10700 kPa)?
Its viscosity is 16.28 ± 0.35 mPa·s.

What about the viscosity (338.15 K, 19400 kPa) of the same molecule?
Its viscosity is 18.62 ± 0.41 mPa·s.

What about the viscosity (338.15 K, 20500 kPa) of the same molecule?
The viscosity was 19.38 ± 0.42 mPa·s.

What about the viscosity (338.15 K, 31000 kPa) of the same molecule?
Its viscosity is 23.29 ± 0.51 mPa·s.

And the viscosity (338.15 K, 31770 kPa)?
The viscosity was 23.04 ± 0.5 mPa·s.

And the viscosity (338.15 K, 40100 kPa)?
Its viscosity is 27.24 ± 0.59 mPa·s.

And the viscosity (338.15 K, 41110 kPa)?
Its viscosity is 26.91 ± 0.59 mPa·s.

What about the viscosity (338.15 K, 50300 kPa) of the same molecule?
The viscosity was 32.42 ± 0.71 mPa·s.

What about the viscosity (338.15 K, 51100 kPa) of the same molecule?
The viscosity was 31.86 ± 0.69 mPa·s.

What about the viscosity (338.15 K, 60400 kPa) of the same molecule?
Its viscosity is 38.31 ± 0.83 mPa·s.

What about the viscosity (338.15 K, 60510 kPa) of the same molecule?
The viscosity was 37.34 ± 0.81 mPa·s.

And the viscosity (338.15 K, 70700 kPa)?
The viscosity was 45.25 ± 0.99 mPa·s.

What about the viscosity (338.15 K, 70710 kPa) of the same molecule?
The viscosity was 43.6 ± 0.95 mPa·s.

And the viscosity (338.15 K, 80200 kPa)?
The viscosity was 52.53 ± 1.1 mPa·s.

And the viscosity (338.15 K, 80970 kPa)?
The viscosity was 51.73 ± 1.1 mPa·s.

And the viscosity (348.15 K, 100 kPa)?
The viscosity was 9.71 ± 0.21 mPa·s.

What about the viscosity (348.15 K, 9800 kPa) of the same molecule?
Its viscosity is 11.47 ± 0.25 mPa·s.

What about the viscosity (348.15 K, 20600 kPa) of the same molecule?
Its viscosity is 13.71 ± 0.3 mPa·s.

And the viscosity (348.15 K, 30230 kPa)?
Its viscosity is 15.96 ± 0.35 mPa·s.

And the viscosity (348.15 K, 31300 kPa)?
The viscosity was 16.34 ± 0.36 mPa·s.

And the viscosity (348.15 K, 40810 kPa)?
The viscosity was 18.91 ± 0.41 mPa·s.

What about the viscosity (348.15 K, 50600 kPa) of the same molecule?
Its viscosity is 22.15 ± 0.48 mPa·s.

What about the viscosity (348.15 K, 50710 kPa) of the same molecule?
Its viscosity is 22.05 ± 0.48 mPa·s.

And the viscosity (348.15 K, 61220 kPa)?
Its viscosity is 25.89 ± 0.56 mPa·s.

And the viscosity (348.15 K, 69800 kPa)?
Its viscosity is 29.77 ± 0.65 mPa·s.

What about the viscosity (348.15 K, 72330 kPa) of the same molecule?
The viscosity was 30.55 ± 0.66 mPa·s.

What about the viscosity (348.15 K, 85770 kPa) of the same molecule?
Its viscosity is 37.23 ± 0.81 mPa·s.
